According to PMC12362764, “Novel Cyano‐Artemisinin Dimer ZQJ29 Targets PARP1 to Induce Ferroptosis in Pancreatic Cancer Treatment” (Advanced Science, 2025):

Assays:
PANC-1 and KP4 cells = experiment: Ferroptosis markers (lipid ROS, iron, MDA, GSH); assay type: cell-based; conditions: 0, 1, 2.5, 5 µM, 24 h of ZQJ29 treatment
A549 = experiment: CCK-8 cytotoxicity assay, A549; assay type: cell-based; conditions: Homo sapiens, A549, 72 h
Procedure: (§1) Cell viability was evaluated using the Cell Counting Kit‐8 (Beyotime, Shanghai, China) assay. Cells were seeded in 96‐well plates at a density of 2×10^3 cells to allow for attachment. After treatment with ZQJ29 (0.001, 0.01, 0.1, 10, and 25 µM) for 24, 48, and 72 h, 10 µL of CCK‐8 solution was added to each well and incubated for 1 h. The optical density values were then measured at 450 nm using a multifunctional enzyme‐linked immunosorbent assay reader (Tecan, Spark, Switzerland).

PANC-1 = experiment: CCK-8 cytotoxicity assay, PANC-1; assay type: cell-based
Procedure: as §1

HeLa = experiment: CCK-8 cytotoxicity assay, HeLa; assay type: cell-based; conditions: Homo sapiens, 72 h
Procedure: as §1

[1] = Pharmacokinetic study after intragastric administration; assay type: in vivo, Sprague-Dawley (SD) rats; conditions: rat, 50 mg/kg i.g.
Procedure: Male Sprague‐Dawley (SD) rats (200 ± 20 g) were purchased from Beijing Vital River Laboratory Animal Technology Co., Ltd. (Beijing, China). After a one‐week acclimatization period, the rats were injected intragastrically with ZQJ29 (50 mg kg^−1). Blood samples were collected from the jugular veins after the injection of ZQJ29 (at 5, 10, 20, 40, 60, 120, 240, 360, 720, and 1440 min). The whole blood was centrifuged at 4000 × g for 10 min at 4 °C. Plasma was extracted with MeOH by vortexing for 10 min. After centrifugation for 12 min at 12 000 × g at 4 °C, the supernatant was analyzed using an HPLC‐MS/MS system. The concentration of ZQJ29 was quantitatively measured by the external standard method. Pharmacokinetic parameters were calculated using Drug and Statistic (DAS, version 2.0) software based on the compartmental method.

PARP1 [2] = target: T1, PARP1 (Homo sapiens, UniProt P09874); experiment: CETSA; assay type: binding; parameters: Total cellular proteins from PANC‐1 and KP4 were extracted using M‐PER lysis buffer; endogenous in cells; host or cells: PANC-1 and KP4 pancreatic cancer cells
Procedure: PANC‐1 and KP4 cells were treated with M‐PER lysis buffer to lyse the cells. The resulting protein extracts were divided into two parts. One part was treated with 50 µM ZQJ29, while the other received an equal amount of DMSO. Both mixtures were incubated on ice for 1 h. The samples were then divided into 100 µL PCR tubes and exposed to a range of temperatures starting at 45 °C. After cooling and centrifugation, 5 × SDS loading buffers were added to the supernatant. The samples were then heated to 95 °C for 10 min and analyzed SDS‐PAGE followed by Western blotting.

MCF = experiment: CCK-8 cytotoxicity assay, MCF; assay type: cell-based; conditions: 72 h
Procedure: as §1

PARP1 [3] = target: T1, PARP1; experiment: DARTS; assay type: binding; parameters: Total cellular proteins from PANC‐1 and KP4 were extracted using M‐PER lysis buffer; endogenous in cells; host or cells: PANC-1 and KP4 pancreatic cancer cells; conditions: enzyme-lysate ratio 1:3000, higher ZQJ29 concentrations
Procedure: Total cellular proteins from PANC‐1 and KP4 were extracted using M‐PER lysis buffer (Thermo Fisher, USA). Aliquots of 50 µg of protein were taken from the lysate and placed into each 1.5 mL tube. Different concentrations of ZQJ29 were added to some tubes, while control tubes received an equal amount of DMSO. The mixtures were incubated at room temperature for 1 h. After incubation, Pronase was added to the mixture of cellular proteins at a ratio of Pronase: protein = 1: 3000 for digestion at room temperature for 15 min. Following digestion, 5 × loading buffer was added, and the samples were heated at 100 °C for 10 min before being used for western blot analysis.

HEK-293T = experiment: CCK-8 cytotoxicity assay, HEK-293T (normal cell line); assay type: cell-based; conditions: Homo sapiens, 72 h
Procedure: as §1

LX2 = experiment: CCK-8 cytotoxicity assay, LX2 (normal cell line); assay type: cell-based; conditions: Homo sapiens, LX-2, 72 h
Procedure: as §1

[4] = test system: PARP1, TP53, SLC7A11, and GPX4; experiment: Western blot of PARP1, TP53, SLC7A11 and GPX4 in cells; assay type: cell-based; conditions: PANC-1 and KP4 cell lines, dose-dependent
Procedure: For western blotting analysis, ZQJ29‐treated cells were lysed with RIPA Lysis Buffer (Yeasen, Shanghai, China) containing protease and phosphatase inhibitors (Yeasen, Shanghai, China) on ice. The cell lysates were quantified using the BCA Protein Assay Kit (Beyotime, Shanghai, China). Samples were subjected to SDS‐PAGE and transferred to PVDF membranes (Beyotime, Shanghai, China). The membranes were blocked with 5% nonfat milk in TBST (Buffered Saline with 0.1% Tween 20) for 1 h, followed by overnight incubation at 4 °C with primary antibodies. After washing the membranes three times with TBST, they were incubated with the appropriate secondary antibodies for 2 h at room temperature. Following another three times with TBST, the bands on the membranes were detected using the ECL‐Plus Western Blotting Detection System (Yeasen, Shanghai, China).

[5] = male, Sprague-Dawley, plasma, po, n = 6

T1 sequence (P09874 whole entry): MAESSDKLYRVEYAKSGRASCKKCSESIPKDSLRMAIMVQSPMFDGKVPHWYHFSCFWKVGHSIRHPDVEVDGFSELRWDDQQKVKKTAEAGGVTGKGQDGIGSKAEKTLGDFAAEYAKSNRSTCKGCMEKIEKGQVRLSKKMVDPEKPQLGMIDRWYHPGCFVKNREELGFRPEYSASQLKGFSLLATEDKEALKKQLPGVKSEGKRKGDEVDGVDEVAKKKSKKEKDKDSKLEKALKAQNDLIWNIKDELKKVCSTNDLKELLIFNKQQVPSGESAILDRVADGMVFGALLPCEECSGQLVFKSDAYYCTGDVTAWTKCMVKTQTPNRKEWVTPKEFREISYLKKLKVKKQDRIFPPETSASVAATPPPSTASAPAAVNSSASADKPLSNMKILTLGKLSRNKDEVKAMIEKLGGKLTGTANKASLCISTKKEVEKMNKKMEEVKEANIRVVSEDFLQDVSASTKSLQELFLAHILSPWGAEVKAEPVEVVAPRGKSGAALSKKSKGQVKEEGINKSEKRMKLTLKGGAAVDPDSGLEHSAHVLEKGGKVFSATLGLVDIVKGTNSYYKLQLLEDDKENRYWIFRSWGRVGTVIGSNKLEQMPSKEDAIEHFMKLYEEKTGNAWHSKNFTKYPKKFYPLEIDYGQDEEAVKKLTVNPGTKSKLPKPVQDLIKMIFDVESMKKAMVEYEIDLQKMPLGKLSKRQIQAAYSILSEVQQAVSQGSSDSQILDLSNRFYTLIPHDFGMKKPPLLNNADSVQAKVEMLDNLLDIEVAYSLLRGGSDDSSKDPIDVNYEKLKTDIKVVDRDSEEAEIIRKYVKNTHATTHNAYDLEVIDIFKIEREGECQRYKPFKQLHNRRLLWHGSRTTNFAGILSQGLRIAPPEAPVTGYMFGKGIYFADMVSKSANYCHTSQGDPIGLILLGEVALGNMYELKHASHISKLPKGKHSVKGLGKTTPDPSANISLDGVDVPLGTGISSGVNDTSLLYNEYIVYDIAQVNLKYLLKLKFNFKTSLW

With `CC1CCC2C(C)C(OCCN(C#N)CCOC3OC4OC5(C)CCC6C(C)CCC(C3C)C46OO5)OC3OC4(C)CCC1C32OO4` (stereo not shown) [ZQJ29] as the compound, how does the “intracellular ROS, iron, MDA and GSH levels” value (PANC-1 and KP4 cells) read?
The value was “increased ROS release, iron accumulation, MDA production, and GSH depletion”.

What about the IC50 (A549) of the same compound?
The IC50 was over 10 µM.

And the IC50 (PANC-1; Homo sapiens, PANC-1, 72 h, average of 3 parallel tests)?
The IC50 was 120 ± 30 nM.

And the “increased cytotoxicity compared to OXA and DHA” value (PANC-1; PANC-1 cells)?
The value was “≈ 100 fold”.

And the IC50 (HeLa)?
The IC50 was 1280 ± 289 nM.

And the AUC(0-t) [1, 5]?
Its AUC(0-t) is 40 ± 16.3 ng·h/mL.

And the Cmax [1, 5]?
Its Cmax is 11.8 ± 6.05 ng/mL.

And the MRT last ([1]; male, Sprague-Dawley, plasma, po, n = 6, read-out: MRT0-t)?
Its MRT last is 2.74 ± 0.46 h.

And the MRT inf ([1]; male, Sprague-Dawley, plasma, po, read-out: average residence time (MRT0-inf))?
The MRT inf was 2.74 h.

What about the half-life ([1]; male, Sprague-Dawley, plasma, po, 50 mg/kg, n = 6) of the same compound?
The half-life was 94.8 ± 15.6 min.

What about the t1/2 ([1]; n = 6, 50 mg/kg) of the same compound?
Its t1/2 is 1.6 h.

What about the “PARP1 accumulation (thermal stability)” value (PARP1 [2]; PANC-1 and KP4 lysates, 50 µM ZQJ29, 45 to 70 °C) of the same compound?
The value was “significantly increased”.

And the “PARP1 stability at 60 °C” value (PARP1 [2]; cell lysates, increasing ZQJ29 concentrations)?
The value was “enhanced”.

What about the IC50 (MCF) of the same compound?
The IC50 was 759 ± 311 nM.

What about the “PARP1 accumulation after pronase digestion” value (PARP1 [3]) of the same compound?
Its value is “increased”.

What about the IC50 (HEK-293T) of the same compound?
Its IC50 is over 10 µM.

And the IC50 (LX2)?
The IC50 was over 10 µM.

What about the “expression of PARP1, SLC7A11 and GPX4” value [4] of the same compound?
Its value is “downregulated”.

And the “expression of TP53” value [4]?
Its value is “upregulated”.
